This assay concerns the target T1, pig liver glycolate oxidase (Sus scrofa, UniProt I3LVF1).
T1 construct: The enzyme was pig liver glycolate oxidase; from tissue; host or cells: pig liver
T1 sequence (I3LVF1 1-370): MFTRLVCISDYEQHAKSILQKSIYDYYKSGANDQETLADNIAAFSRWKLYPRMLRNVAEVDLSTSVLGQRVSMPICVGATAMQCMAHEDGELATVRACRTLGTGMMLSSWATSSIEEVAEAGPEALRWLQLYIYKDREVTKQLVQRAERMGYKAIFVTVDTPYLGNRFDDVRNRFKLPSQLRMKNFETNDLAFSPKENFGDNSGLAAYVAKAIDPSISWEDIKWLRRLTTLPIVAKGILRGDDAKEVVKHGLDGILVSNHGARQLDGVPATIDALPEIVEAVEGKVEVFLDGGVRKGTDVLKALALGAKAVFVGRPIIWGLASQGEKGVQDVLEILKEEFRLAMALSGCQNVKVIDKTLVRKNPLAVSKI
Put plainly: Glycolate Oxidase Enzyme Inhibition. The class given is biochemical. The note with it: 25° C., 0.10 M phosphate buffer, pH 7.0, 3 mM EDTA; 5×10^-5 M sodium 2,6-dichlorophenol-indophenol, 2×10^-4 M sodium glycolate; initial rates 1 to 3 min., 600 nm. On the procedure: The usefulness of the compounds of the present invention in treating urinary tract, especially renal, calcium oxalate lithiasis, was shown by the ability of those compounds to inhibit the glycolate oxidase enzyme. […] The activity of the enzyme, in turn, was measured by following the rate of reduction of sodium 2,6-dichlorophenol-indophenol by sodium glycolate in the presence of the enzyme. The enzyme was pig liver glycolate oxidase. The reaction was followed spectrophotometrically at 600 nm. The assay was conducted at 25° C. in a 0.10 M phosphate buffer, pH 7.0, containing 3 mM EDTA. Initial substrate concentrations were 5×10^-5 M of sodium 2,6-dichlorophenol-indophenol and 2×10^-4 M of sodium glycolate. Reactions were initiated by the addition of enzyme. Initial rates during the period from 1 to 3 min. after the addition of enzyme were recorded on a Beckman Acta M-VI spectrophotometer. One control was run simultaneously with three test reactions, and all initial rates were adjusted to a common control rate. For further details of this procedure, see Randall et al., J. Med. Chem. 22, 6, 612 (1979).

As for `O=C1NS(=O)(=O)C(c2ccccc2)=C1O` [4-Hydroxy-5-phenyl-3(2H)-isothiazolone-1,1-dioxide], the IC50 – broadly, the point on the concentration scale where inhibition reaches its midpoint – is 2100 nM.
